What all share (format): functional
For one assay, the system named is Bacillus subtilis. Kind of assay: Antimicrobial activity against Bacillus subtilis NCIM 2250 after 48 hrs by NCCLS protocol based method. Particulars: NCIM 2250, 48 h.
In assay [1] the test system is Escherichia coli. Kind of assay: Antimicrobial activity against Escherichia coli ATCC 25922 after 48 hrs by NCCLS protocol based method. Conditions: ATCC 25922, 48 h.
The subject of assay [2] is Aspergillus niger. In words: Antifungal activity against Aspergillus niger NCIM 545 after 48 hrs by NCCLS protocol based method. Conditions: NCIM 545, 48 h.
Assay [3] deals with Candida albicans. Kind of assay: Antifungal activity against Candida albicans MTCC 277 after 48 hrs by NCCLS protocol based method. Conditions: MTCC 277, 48 h.
Assay [4] has as its system Escherichia coli. Kind of assay: Antimicrobial activity against Escherichia coli assessed as zone of inhibition at 50 ug/ml. Particulars: read-out: IZ.
The subject of assay [5] is Staphylococcus aureus. In words: Antimicrobial activity against Staphylococcus aureus assessed as zone of inhibition at 50 ug/ml. Conditions: read-out: IZ.
Assay [6] deals with Aspergillus niger. In words: Antifungal activity against Aspergillus niger assessed as zone of inhibition at 50 ug/ml. Particulars: read-out: IZ.
The subject of assay [7] is Candida albicans. Kind of assay: Antifungal activity against Candida albicans assessed as zone of inhibition at 50 ug/ml. Particulars: read-out: IZ.
Assay [8] deals with Escherichia coli. Kind of assay: Antimicrobial activity against Escherichia coli.
Assay [9] concerns Pseudomonas aeruginosa. In words: Antimicrobial activity against Pseudomonas aeruginosa.
Assay [10] has as its system Staphylococcus aureus. Kind of assay: Antimicrobial activity against Staphylococcus aureus.
Assay [11] has as its system Bacillus cereus. Kind of assay: Antimicrobial activity against Bacillus cereus.
The test system of assay [12] is Candida albicans. Kind of assay: Antifungal activity against Candida albicans.
The test system of assay [13] is Staphylococcus aureus. Kind of assay: Antimicrobial activity against Staphylococcus aureus assessed as zone of inhibition at 250 ug/ml. Conditions: read-out: IZ.
Assay [14] concerns Bacillus cereus. Kind of assay: Antimicrobial activity against Bacillus cereus assessed as zone of inhibition at 250 ug/ml. Particulars: read-out: IZ.
The subject of assay [15] is Escherichia coli. Kind of assay: Antimicrobial activity against Escherichia coli assessed as zone of inhibition at 250 ug/ml. Particulars: read-out: IZ.
Assay [16] concerns Pseudomonas aeruginosa. In words: Antimicrobial activity against Pseudomonas aeruginosa assessed as zone of inhibition at 250 ug/ml. Conditions: read-out: IZ.
The subject of assay [17] is Candida albicans. Kind of assay: Antifungal activity against Candida albicans assessed as zone of inhibition at 250 ug/ml. Conditions: read-out: IZ.
For assay [18], the system named is Aspergillus niger. Kind of assay: Antifungal activity against Aspergillus niger assessed as zone of inhibition at 250 ug/ml. Conditions: read-out: IZ.
Assay [19] relates to Aspergillus niger. In words: Antifungal activity against Aspergillus niger.

≈ marks a conversion by molar mass, not a printed value.

With `CCOC(=O)C(C#N)C(c1cc2c(OC)cccc2n2nnnc12)P(=O)(OCC)OCC` (centres undefined), the MIC in the assay on Bacillus subtilis, in the assay on Escherichia coli [1], against Aspergillus niger [2] and in the assay with Candida albicans [3] was 10 to 20 µg/mL (≈ 21.7 to 43.3 µM) each time.

As for `CCOC(=O)C(C#N)C(c1cc2ccccc2n2nnnc12)P(=O)(OCC)OCC` (centres undefined), the MIC with Bacillus subtilis, in the assay on Escherichia coli [1], against Aspergillus niger [2] and against Candida albicans [3] was 10 to 20 µg/mL (≈ 23.2 to 46.4 µM) throughout.

For `CCOC(=O)C(C#N)C(c1cc2c(C)cccc2n2nnnc12)P(=O)(OCC)OCC` (centres undefined), the minimal inhibitory concentration (MIC) in the assay with Bacillus subtilis, in the assay with Escherichia coli [1], in the assay with Aspergillus niger [2] and against Candida albicans [3] was 10 to 20 µg/mL (≈ 22.5 to 44.9 µM) in each case.

For `O=C(/C=C/c1ccccc1)n1nnnc1-c1ccccc1`, the zone of inhibition at 50 µg/mL with Escherichia coli [4], in the assay on Staphylococcus aureus [5], in the assay with Aspergillus niger [6] and in the assay with Candida albicans [7] was 8 to 15 mm in each case.

Consider `Cc1ccc(/C=C/C(=O)n2nnnc2-c2ccccc2)cc1`, for which the zone of inhibition at 50 µg/mL in the assay on Escherichia coli [4], with Staphylococcus aureus [5], in the assay on Aspergillus niger [6] and with Candida albicans [7] was 8 to 15 mm each time.

In the case of `CN(C)c1ccc(-c2nnnn2-c2nc3ccccc3s2)cc1`, the MIC in the assay on Escherichia coli [8], against Pseudomonas aeruginosa [9], against Staphylococcus aureus [10], in the assay on Bacillus cereus [11], against Candida albicans [12] and against Aspergillus niger [19] was 50 to 100 µg/mL (≈ 155 to 310 µM) each time. Also, the zone of inhibition at 250 µg/mL in the assay on Staphylococcus aureus [13], with Bacillus cereus [14], with Escherichia coli [15], in the assay with Pseudomonas aeruginosa [16], with Candida albicans [17] and in the assay on Aspergillus niger [18] was 16 to 26 mm throughout.

`O=C(/C=C/c1ccc(Br)cc1)n1nnnc1-c1ccccc1`: the zone of inhibition at 50 µg/mL with Escherichia coli [4], with Staphylococcus aureus [5], in the assay on Aspergillus niger [6] and in the assay with Candida albicans [7] was 8 to 15 mm each time.

On to `c1ccc(-c2nnnn2-c2nc3ccccc3s2)cc1`, for which the MIC in the assay on Escherichia coli [8], against Pseudomonas aeruginosa [9], with Staphylococcus aureus [10], in the assay on Bacillus cereus [11], against Candida albicans [12] and with Aspergillus niger [19] was 50 to 100 µg/mL (≈ 179 to 358 µM) in each case. Also, the zone of inhibition at 250 µg/mL in the assay with Staphylococcus aureus [13], in the assay with Bacillus cereus [14], in the assay with Escherichia coli [15], in the assay with Pseudomonas aeruginosa [16], with Candida albicans [17] and in the assay on Aspergillus niger [18] was 16 to 26 mm each time.

For the compound `O=C(/C=C/c1ccc(Cl)cc1)n1nnnc1-c1ccccc1`, the zone of inhibition at 50 µg/mL with Escherichia coli [4], with Staphylococcus aureus [5], in the assay on Aspergillus niger [6] and in the assay with Candida albicans [7] was 8 to 15 mm in each case.

Consider `Oc1cccc(-c2nnnn2-c2nc3ccccc3s2)c1`, for which the minimal inhibitory concentration (MIC) with Escherichia coli [8], in the assay with Pseudomonas aeruginosa [9], in the assay on Staphylococcus aureus [10], against Bacillus cereus [11], against Candida albicans [12] and with Aspergillus niger [19] was 50 to 100 µg/mL (≈ 169 to 339 µM) throughout. Moreover, the zone of inhibition at 250 µg/mL in the assay with Staphylococcus aureus [13], with Bacillus cereus [14], with Escherichia coli [15], in the assay on Pseudomonas aeruginosa [16], in the assay on Candida albicans [17] and with Aspergillus niger [18] was 16 to 26 mm in each case.

For the compound `COc1cc(-c2nnnn2-c2nc3ccccc3s2)cc(OC)c1OC`, the MIC in the assay on Escherichia coli [8], in the assay with Pseudomonas aeruginosa [9], against Staphylococcus aureus [10], against Bacillus cereus [11], in the assay with Candida albicans [12] and against Aspergillus niger [19] was 50 to 100 µg/mL (≈ 135 to 271 µM) each time. Also, the zone of inhibition at 250 µg/mL in the assay on Staphylococcus aureus [13], in the assay with Bacillus cereus [14], in the assay on Escherichia coli [15], in the assay with Pseudomonas aeruginosa [16], in the assay with Candida albicans [17] and in the assay on Aspergillus niger [18] was 16 to 26 mm in each case.

With `CCOC(=O)C(C#N)C(c1cc2ccc(C)cc2n2nnnc12)P(=O)(OCC)OCC` (centres undefined), the minimum inhibitory concentration (MIC) in the assay with Bacillus subtilis, with Escherichia coli [1], in the assay on Aspergillus niger [2] and in the assay with Candida albicans [3] was 10 to 20 µg/mL (≈ 22.5 to 44.9 µM) in each case.

Take `COc1ccc(/C=C/C(=O)n2nnnc2-c2ccccc2)cc1`: the zone of inhibition at 50 µg/mL with Escherichia coli [4], in the assay with Staphylococcus aureus [5], in the assay with Aspergillus niger [6] and with Candida albicans [7] was 8 to 15 mm in each case.

The values are drawn from ChEMBL document CHEMBL4342421, “Current scenario of tetrazole hybrids for antibacterial activity” (Eur J Med Chem, 2019).
